{"source": "patent US9963696B2", "about": "“Method for screening mutant microorganism overproducing target metabolite using synthetic suicide genetic circuit” (Korea University Research and Business Foundation, priority 2014, dated 2018)", "key": {"[1]": {"test_system": "glmS ribozyme", "assay": "growth of yeast carrying the glmS suicide riboswitch with externally added GlcN in the presence of fluorocytosine", "format": "cell-based, Saccharomyces cerevisiae", "source_text": "The gene fragment to be inserted was transformed into Saccharomyces cerevisiae BY4742. In order to examine whether the suicide riboswitch was inserted into the gene of the yeast, a colony selected on an SD-URA medium (2% glucose, 0.67% yeast nitrogen base without amino acids, 0.77 g/L CSM-URA dropout mixture) plate was selected. As a result, it could be seen that the glmS ribozyme was inserted into the 3′UTR (untranslated region) of FCY1 locus in the BY4742 strain.\nIn addition, in order to examine whether the suicide riboswitch operates properly, whether the growth rate of cells having the suicide riboswitch introduced therein changes depending on the concentration of GlcN6P in the cells was examined. In the presence of fluorocytosine, glucosamine (GlcN) was externally added to the culture medium so that it was converted to GlcN6P by intracellular hexokinase.\nA BY4742 FGU strain and other strains, which have a suicide riboswitch introduced therein, were cultured in minimal media. For culture of BY4742 FGU, SD-URA medium supplemented with 5 mg/L of fluorocytosine was used. At 2 days after seeding, absorbance was used. To screen the GFA1 mutant library, medium supplemented with 10 mg/L of fluorocytosine was used, and to screen the HAD phosphatase library, medium supplemented with 20 mg/L of fluorocytosine was used (FIG. 2c)."}, "[2]": {"test_system": "FMN ribozyme", "assay": "growth of yeast carrying the FMN suicide riboswitch with added or intracellularly produced FMN", "format": "cell-based, Saccharomyces cerevisiae", "source_text": "Using the same method as described in Example 1-1, a FMN ribozyme (Proc. Natl. Acad. Sci. USA Vol. 96, pp. 3584-3589, March 1999, “Engineering precision RNA molecular switches”)\nBiochemistry was inserted into the 3′ UTR of the FCY1 gene (NC_001148.4). In order to examine whether the suicide riboswitch operates properly, an experiment for examining whether the growth rate of cells having the suicide riboswitch introduced therein changes depending on the concentration of FMN in the cells was performed.\nSpecifically, FMN was externally added to the culture medium.\nIn addition, the FMN1 gene was cloned into a p413GPD plasmid, which was then transformed into a strain having the FMN suicide riboswitch introduced therein so that FMN was produced in the cells. Also, the cells were treated with fluorocytosine. […] In addition, it could be seen that the absorbance at 660 nm was high due to the production of FMN (FIG. 6c)."}, "[3]": {"settings": "FMN produced in the cells from FMN1 on p413GPD plasmid, treated with fluorocytosine"}}}
{"smiles": "N[C@H]1C(O)O[C@H](CO)[C@@H](O)[C@@H]1O", "note": "(some centres unmarked) [GlcN, glucosamine]", "values": [{"measurement": "growth rate of cells having the suicide riboswitch", "setting": "[1]; GlcN externally added to culture medium, in the presence of fluorocytosine, increasing GlcN6P concentration", "value": "the growth rate of the cells increased"}, {"measurement": "absorbance at 660 nm", "setting": "[1]; various concentrations of added GlcN", "value": "changed depending on the concentration of GlcN"}]}
{"smiles": "Cc1cc2nc3c(=O)[nH]c(=O)nc-3n(C[C@H](O)[C@H](O)[C@H](O)COP(=O)(O)O)c2cc1C", "note": "[FMN, flavin mononucleotide]", "values": [{"measurement": "absorbance", "setting": "[2]; FMN externally added to culture medium, increasing concentration", "value": "the absorbance also increased"}, {"measurement": "absorbance at 660 nm", "setting": "[2]; [3]", "value": "high"}, {"measurement": "growth rate of the cells", "setting": "[2]; [3]", "value": "the growth rate of the cells was high"}]}
